Measurements: US5767113A, “Compounds useful for concurrently activating glucocorticoid-induced response and reducing multidrug resistance” (The Salk Institute For Biological Studies, priority 1995, dated 1998)
Read-outs that look alike come from different tables or passages of the source.

Columns and labels:
[1] = tested on: CEM/VLB100 cells; assay: Reversal of vinblastine resistance in the CEM/VLB100 cell line (turbidity at 660 nm); assay type: cell-based, human
Description: (§1) Human CEM/VLB100 cells were distributed (5×10^4 cells/ml, 1 ml/well) into multiwell dishes and incubated for 5 days with 30 nM vinblastine and increasing concentrations of test compound, as indicated in the Figure. At the end of the incubation period, the turbidity values (at 660 nm) for each set of cultures were measured and expressed relative to cells that were incubated without test compound. These values represent the ability of test compound, relative to control (i.e., verapamil) to reverse CEM/VLB100 resistance to 30 nM vinblastine, as reflected by the relative amount of cell proliferation under a given set of growth conditions. Each value shown in the Figures is the average of 2 separate determinations.
II. Reversal of Vinblastine Resistance in the CEM/VLB100 Cell Line
as §1, with “The CEM/VLB100 cell line is a derivative of human CEM cells, selected for resistance to vinblastine. This cell line expresses the human MDR1 gene.” for “Human”, “FIG. 2.” for “the Figure.”, “compound” for “compound, relative to control (i.e., verapamil)”, “FIG. 2” for “the Figures”, “determinations. Results are also presented in the second data column of Table 1, wherein the ED50 values reflect the concentration of chemosensitizer that causes the Relative Turbidity value to be reduced by 50%.” for “determinations.”

[2] = tested on: murine thymoma W7TB cells; assay: Glucocorticoid agonist activity: glucocorticoid-induced apoptosis of murine thymoma W7TB cells (turbidity at 660 nm); assay type: cell-based; conditions: Mus musculus, 120 h, 5 days, agonist concentration that reduces Relative Turbidity to 50%, read-out: LD50 ^3
Description: FIG. 1 presents the results of an evaluation of the glucocorticoid agonist activity of several steroid analogs. The glucocorticoid-induced apoptosis of murine thymoma W7TB cells was taken as a measure of the agonist activity of steroid analogs. Murine W7TB cells were distributed (5×10^4 cells/ml/well) into multiwell dishes and incubated for 5 days with increasing concentrations of test compound, as indicated in the Figure. At the end of the incubation period, the turbidity values (at 660 nm) for each set of cultures were measured and expressed relative to cells that were incubated without test compound. These values represent the effect of test compound on the relative amount of cell proliferation under a given set of growth conditions. Each value shown in the Figures is the average of 2 separate determinations.
The glucocorticoid agonist activity of several steroid analogs was evaluated by determining the glucocorticoid-induced apoptosis of murine thymoma W7TB cells. Thus, murine W7TB cells were distributed (5×10^4 cells/ml/well) into multiwell dishes and incubated for 5 days with increasing concentrations of test compound, as indicated in FIG. 1. Dichlorisone is 1,4-pregnadiene-9α, 11β-dichloro-17α-21-diol-3,20-dione; "SA 44" is the 3,4-dimethoxy benzoic acid ester of dichlorisone; and "SA 47" is the 4-dimethylamino benzoic acid ester of dichlorisone. "17-DOD" is 17-deoxydexamethasone (i.e., 1,4-pregnadien-9α-fluoro-16αmethyl-11β,21-diol-3,20-dione); "SA 45" is the 4-dimethylamino benzoic acid ester of 17-DOD; and "SA 54" is the N-benzylcarbamate of 17-DOD.
At the end of the incubation period, the turbidity values (at 660 nm) for each set of cultures were measured and expressed relative to cells that were incubated without test compound. These values represent the effect of test compound on the relative amount of cell proliferation under a given set of growth conditions. Each value shown in FIGS. 1A and 1B is the average of 2 separate determinations. Results are also presented in the third data column of Table 1, wherein LD50 values reflect the agonist concentration that causes the Relative Turbidity value to be reduced to 50%.

[3] = tested on: S7dexΓ -1 cells; assay: Reversal of puromycin resistance in the S7dex-1 cell line (turbidity at 660 nm); assay type: cell-based, murine
Source text: I. Reversal of Puromycin Resistance in the S7dexΓ -1 Cell Line
The S7dexΓ- 1 cell line is a glucocorticoid resistant derivative of the S7CD-5 cell line. It was selected on the basis of its resistance to the glucocorticoid agonist triamcinolone acetonide (5×10^-7 M) from S7CD-5 cells that had been mutagenized with N-methyl-N'-nitro-N-nitrosoguanidine. The apoptic response to glucocorticoid agonists is not elicited in the S7dexΓ -1 cells. Thus, murine S7dexΓ -1 cells were distributed (5×10^4cells/ml, 1 ml/well) into multiwell dishes and incubated for 5 days with 20 μM puromycin and increasing concentrations of test compound. At the end of the incubation period, the turbidity values (at 660 nm) for each set of cultures were measured and expressed relative to cells that were incubated without test compound. These values represent the ability of test compound to reverse S7dexΓ -1 resistance to 20 μM puromycin, as reflected by the relative amount of cell proliferation under a given set of growth conditions. The number of repetitions of each value presented in the first data column of Table 1 are indicated in parenthesis after each entry. In the Table, the ED50 values reflect the concentration of chemosensitizer that causes the Relative Turbidity value to be reduced by 50%.

[4] = 5 days with 30 nM vinblastine, chemosensitizer concentration that reduces Relative Turbidity by 50%, read-out: ED50 ^2
[5] = S7dex1 cells, 5 days with 20 μM puromycin; chemosensitizer concentration that reduces Relative Turbidity by 50%; read-out: ED50 ^1
[6] = read-out: ED50 ^2, 5 days with 30 nM vinblastine, chemosensitizer concentration that reduces Relative Turbidity by 50%
[7] = read-out: ED50 ^1; S7dex1 cells, 5 days with 20 μM puromycin; chemosensitizer concentration that reduces Relative Turbidity by 50%

SMILES	IC50 [1, 4] [µM]	IC50 [2] [µM]	IC50 [3, 5] [µM]	IC50 [1, 6] [µM]	IC50 [3, 7] [µM]
C[C@@H]1C[C@H]2[C@@H]3CCC4=CC(=O)C=C[C@]4(C)[C@@]3(F)[C@@H](O)C[C@]2(C)[C@H]1C(=O)CO [17-DOD, 1,4-Pregnadien-9α-fluoro-16α-methyl-11β,21-diol-3, 20-dione, reference compound]	> 8	0.0053	2.7	–	–
C[C@]12C=CC(=O)C=C1CC[C@H]1[C@@H]3CC[C@](O)(C(=O)CO)[C@@]3(C)C[C@H](Cl)[C@@]12Cl [Dichlorisone, 1,4-pregnadiene-9α,11β-dichloro-17α-21-diol-3,20-dione, reference compound]	–	0.0075	–	> 8	> 8
CC(=O)[C@H]1CC[C@H]2[C@@H]3CCC4=CC(=O)CC[C@]4(C)[C@H]3CC[C@]12C [Progesterone, reference compound]	> 8	2.4	1.6	–	–
COc1ccc(C(=O)OCC(=O)[C@H]2[C@H](C)C[C@H]3[C@@H]4CCC5=CC(=O)C=C[C@]5(C)[C@@]4(F)[C@@H](O)C[C@@]32C)cc1OC [SA 43, 1,4-Pregnadien-9α-fluoro-16α-methyl-11β,21-diol-3,20-dione,21-(3 ,4-dimethoxybenzoate)]	1.2	0.018	–	–	–
COc1ccc(C(=O)OCC(=O)[C@@]2(O)CC[C@H]3[C@@H]4CCC5=CC(=O)C=C[C@]5(C)[C@@]4(Cl)[C@@H](Cl)C[C@@]32C)cc1OC [SA 44, 1,4-Pregnadien-9α11β-dichloro-17α,21-diol-3,20-dione, 21-(3,4-dimethoxybenzoate)]	2.5	0.014	0.44	–	–
C[C@@H]1C[C@H]2[C@@H]3CCC4=CC(=O)C=C[C@]4(C)[C@@]3(F)[C@@H](O)C[C@]2(C)[C@H]1C(=O)COC(=O)c1ccc(N(C)C)cc1 [SA 45, 1,4-Pregnadien-9α-fluoro-16αmethyl-11β,21-diol-3 20-dione, 21-(4-dimethylaminobenzoate)]	2.7	0.034	0.36	–	–
CN(C)c1ccc(C(=O)OCC(=O)[C@@]2(O)CC[C@H]3[C@@H]4CCC5=CC(=O)C=C[C@]5(C)[C@@]4(Cl)[C@@H](Cl)C[C@@]32C)cc1 [SA 47, 1,4-Pregnadien-9α,11β-dichloro-17α,21-diol-3,20-dione, 21-(4-dimethylaminogenzoate)]	1.1	0.013	0.45	–	–
CC(=O)[C@H]1[C@H](C)C[C@H]2[C@@H]3CCC4=CC(=O)C=C[C@]4(C)[C@@]3(F)[C@@H](O)C[C@@]21C [SA 50, 1,4-Pregnadien-9αfluoro-16αmethyl-11β-ol-3 20-dione]	> 8	0.009	0.53	–	–
C[C@@H]1C[C@H]2[C@@H]3CCC4=CC(=O)C=C[C@]4(C)[C@@]3(F)[C@@H](O)C[C@]2(C)[C@H]1C(=O)COC(=O)NCc1ccccc1 [SA 54, 1,4-Preqnadien-9αfluoro-16αmethyl-11β,21-diol-3 20-dione, 21-(N-benzylcarbamate)]	1.8	0.25	0.42	–	–
COc1ccc(CCN(C)CCCC(C#N)(c2ccc(OC)c(OC)c2)C(C)C)cc1OC (stereo not shown) [Verapainil, verapamil, reference compound]	–	–	–	1.3	0.76
